Source: patent US7232578B2, “Pharmaceutical composition inducing cancer cell differentiation and the use for treatment and prevention of cancer thereof” (Bio Grand Co., Ltd., priority 2005, dated 2007)

Key:
[1] = system: HBL-100 breast cancer cells; test: Inhibition of colony formation of HBL-100 breast cancer cells; type: cell-based, human
Description: The activity of cancer cell colony formation is determined by using HBL-100 breast cancer cells according to the method described in Example 4, which is expressed by the percentage of the activity of cancer cell colony formation in a control group in which none of the chemicals is added. A group in which thymidine is used alone, a group in which CDA-II is used alone, and a group in which thymidine and CDA-II are used together (1:1) were tested. […] The synergistic effect is remarkable.
The activity of cancer cell colony formation is determined by using HBL-100 breast cancer cells according to the method described in Example 4. Each culture flask contains 5 ml medium, which contains 3000 HBL-100 cells and different amounts of CDA-11, vitamin C or vitamin B17. After incubation at 37° C. for 5 days, the cells were stained with Giemsa, and numbers of colonies with more than 8 cells were counted under a microscope.
Another indication of the anticancer activity of CDA-II is the inhibition of colony formation of HBL-100 breast cancer cell. At the beginning, the breast cancer cells growing at the exponential phase were washed with HBS solution, then about 2 ml 0.05% trypsin-0.53 mM EDTA was added, and the solution was incubated at 37° C. for 10 minutes. Thereafter, the cell density was measured, then an aliquot was taken and diluted to 3×10^3 cells/ml. 0.5 ml of the diluted solution was added into 4.5 ml culture medium with or without CDA-II and incubated at 37° C. Five days later, the medium was discarded, and the cells were washed with isotonic saline, then methanol was added to fix cells for 15 minutes. The fixed cells were stained for 30 minutes with Giemsa staining solution diluted 20 fold. After the staining solution was discarded, the cells were washed with water and dried. The colony number above 8 cells was counted under a microscope to determine the anticancer activity of CDA-II (the result is shown in table 1).
The experiment was carried out according to FIG. 6. HBL-100 cells were cultured with different dosages of CDA-II, vitamin C and vitamin B17 alone, and with the combination of CDA-II and vitamin C, or the combination of CDA-II and vitamin B17.

HL-60 cancer cells = test: Completeness of retinoic acid-induced differentiation with helper inducers (NBT test); type: cell-based; details: 96 hours, FIG. 5
Description: Differentiation helper inducers can not only decrease the effective amount of the differentiation inducer, but also promote the completeness of differentiation. HL-60 cancer cells were subcultured at an initial cell density of 1.5×10^5 cells/ml. The culture flasks were grouped into three sets; each set includes 4-5 flasks. One flask was used as the blank without additives. One set was added 0.025-0.15 μM retinoic acid as the control; the other two sets were added 4 μM of uroerythrin or vitamin B2. NBT test was conducted as described in Example 4 after incubation for 96 hours. The values thus obtained were subtracted with the value obtained by the blank without additives.

HL-60 cells = test: Differentiation helper inducer activity (reductive index, retinoic acid-induced HL-60 differentiation, NBT+); type: cell-based; details: for Concentration to reach 0.5 reductive index (effective dose of differentiation inducer reduced to 50%): MAT inhibitors as differentiation helper inducers; for Concentration to reach 0.5 reductive index: methyltransferase inhibitors as differentiation helper inducers, HL-60, retinoic acid, 96 hours
Description: The differentiation of cancer cells was measured by using leukemic cancer cells HL-60 to quantitate the NBT+ cells. First, HL-60 cells were subcultured at an initial cell density 1.5×10^5 cells/ml, 10 ml/flask. A set of four flasks were used as the control, wherein only retinoic acid was added as differentiation inducer, the amount of which was adjusted to induce NBT+ cells to the range of 15% to 60%. Another flask was used as the blank which was added the solution only. The total amount of methanol in which retinoic acid was dissolved should not exceed 2%, so as not to affect the differentiation of cancer cells. Each of other sets also comprises four flasks, which were added smaller amounts of retinoic acid, and a blank flask with only the solvent. Different amounts of the differentiation helper inducers were added in each set. The cell numbers in every flask were counted after incubation for 96 hours, and NBT was assayed according to the method of Example 4. Generally, the natural differentiation of the HL-60 cells, i.e. without the action of any of the additives, is usually lower than 4%. In the sets containing only differentiation helper inducer, the differentiation of cells is less than 10%. The value of NBT+ in each flask is required to subtract the value of the blank control.
The value of ED50, i.e., the amount of the differentiation inducer required when NBT+ is 50%, can be obtained by plotting the amount against NBT+. The reductive index can be calculated from the ED50 value. Reductive index=ED50 in the presence of differentiation helper inducer/ED50 with cell differentiation inducer only. The lower the reductive index, the higher the activity of the differentiation helper induced.

[2] = retinoic acid combined with 4 μM helper inducer

For `O=C1O[C@H]([C@@H](O)CO)C(O)=C1O` [vitamin C], the IC50 ([1]; Homo sapiens, HBL-100, 120 h, 5 days, FIG. 7, read-out: IC50, inhibition of the formation of colonies of HBL-100 human breast cancer cells) was 530 µg/mL and the inhibition at 200 µg/mL ([1]; Homo sapiens, HBL-100, vitamin C 0.2 mg/ml alone, read-out: Colony formation of HBL-100 cells: inhibition percentage, administered alone) was 12%.

For `CC1=C(/C=C/C(C)=C/C=C/C(C)=C/C(=O)O)C(C)(C)CCC1` [retinoic acid], the “Extent of differentiation (NBT+)” value (HL-60 cancer cells; differentiation inducer (0.025-0.15 μM retinoic acid) used alone) was “about 85%”.

For `O=C(O)CNC(=O)c1ccccc1` [hippuric acid], the “Concentration to reach 0.5 reductive index (effective dose of differentiation inducer reduced to 50%)” value (HL-60 cells) was 8 mM.

In the case of `N#CC(O[C@@H]1O[C@H](CO[C@@H]2O[C@H](CO)[C@@H](O)[C@H](O)[C@H]2O)[C@@H](O)[C@H](O)[C@H]1O)c1ccccc1` (stereo partly shown) [vitamin B17], the “IC50, inhibition of the formation of colonies of HBL-100 human breast cancer cells” value ([1]; 5 days, FIG. 7) was 130 µg/mL and the “Colony formation of HBL-100 cells: inhibition percentage, administered alone” value ([1]; vitamin B17 0.05 mg/ml alone) was 20%.

`Cc1cc2nc3c(=O)[nH]c(=O)nc-3n(C[C@H](O)[C@H](O)[C@H](O)CO)c2cc1C` [vitamin B2, riboflavin] was tested, and the “Extent of differentiation (NBT+)” value (HL-60 cancer cells; [2]) was 100% and the “Concentration to reach 0.5 reductive index” value (HL-60 cells) was 3.0 µM.

With `CC[n+]1c(-c2ccccc2)c2cc(N)ccc2c2ccc(N)cc21` [ethidium bromide] the “Concentration to reach 0.5 reductive index” value (HL-60 cells) was 0.95 µM.

`C=CC1=C(C)C(=O)N=C1C=c1[nH]c(=Cc2[nH]c(O)c(C)c2CCC(=O)O)c(CCC(=O)O)c1C` [uroerythrin] was tested, and the “Extent of differentiation (NBT+)” value (HL-60 cancer cells; [2]) was 100% and the “Concentration to reach 0.5 reductive index” value (HL-60 cells) was 1.8 µM.

`O=C(O)Cc1ccccc1` [phenylacetic acid] was tested, and the “Concentration to reach 0.5 reductive index (effective dose of differentiation inducer reduced to 50%)” value (HL-60 cells) was 4 mM.

With `CCN(CC)CCNc1ccc(CO)c2sc3ccccc3c(=O)c12` [hycanthone] the “Concentration to reach 0.5 reductive index” value (HL-60 cells) was 2 µM.
